Measurements: US10106783B2, “HCV culture systems and direct-acting antiviral sensitivity” (Hvidovre Hospital, priority 2013, dated 2018)

Experiments:
[1] = system: 3a(S52) 5'UTR-NS5A recombinant virus; assay: High-throughput DAA treatment assay of infected Huh7.5 cells, 3a(S52)5-5A virus; assay type: cell-based, hepatitis C virus; details: 3a(S52)5-5A virus more resistant (less sensitive) than J6/JFH1
Method: (§1) Huh7.5 cells in 96-well culture plates were infected with 5′UTR-NS5A specific genotype(isolate) recombinants. For details on the 5-5A virus stocks see FIG. 3. J6/JFH1 was a first-passage stock with no mutations in the ORF. Cultures were treated with seven protease inhibitors and the NS5A inhibitor daclatasvir. Values are means of triplicates in the experiment with ±SEM.
(§2) HCV DAAs were purchased from Acme Bioscience and dissolved in dimethyl sulfoxide (Sigma). High throughput treatment assays have been previously established. Concentration-response curves, EC50 values, and 95% confidence interval were calculated in GraphPad Prism 5 as described. Cytotoxicity assays to determine the non-cytotoxic dose range of the anti-HCV drugs were performed.
(§3) Since no mutations appeared in the NS3 protease region in first-passage 5-5A recombinants, these culture viruses could be ideal models for studying the efficacy of PIs in a genotype-specific manner. We thus generated virus stocks from first-passage 1a(H77 and TN) and second-passage 3a(S52), 4a(ED43), 5a(SA13), and 6a(HK6a) 5-5A viruses (FIG. 3) for PI treatment experiments. Additionally, we generated a first-passage stock of 2a J6/JFH1. We confirmed that virus stocks used for treatment were without NS3 protease mutations (FIGS. 5-9). We tested virus sensitivity to the most advanced PIs: telaprevir (VX-950), boceprevir (SCH503034), asunaprevir (BMS-650032), simeprevir (TMC435350), vaniprevir (MK-7009), faldaprevir (BI201335), and MK-5172. […] The median effective concentration (EC50) representing the efficacy of drugs against the treated viruses was calculated from the concentration-response curves (FIGS. 2, 4 and 10). For a given inhibitor, EC50 fold-differences relative to J6/JFH1 were calculated for each genotype recombinant and used to describe whether a recombinant was more sensitive (fold-difference <1) or resistant (fold-difference >1) than J6/JFH1.

[2] = system: 1a(TN) 5'UTR-NS5A recombinant virus; assay: High-throughput DAA treatment assay of infected Huh7.5 cells, 1a(TN)5-5A virus; assay type: cell-based, hepatitis C virus; details: for EC50 fold-difference from J6/JFH1: 1a(TN)5-5A virus, difference in sensitivity compared to J6/JFH1; for EC50 fold-difference relative to J6/JFH1, more sensitive: 1a(TN)5-5A virus more sensitive than J6/JFH1
Method: as §1, §2, §3

[3] = system: HCV genotype 1-6 recombinant viruses; assay: High-throughput DAA treatment assay of infected Huh7.5 cells, whole panel of genotype 1-6 recombinant viruses; assay type: cell-based, hepatitis C virus; details: for Inhibition of genotype 1-6 recombinant viruses: infected Huh7.5 cells, concentration-response
Method: as §1, §2, §3

[4] = system: 6a(HK6a) 5'UTR-NS5A recombinant virus; assay: High-throughput DAA treatment assay of infected Huh7.5 cells, 6a(HK6a)5-5A virus; assay type: cell-based, hepatitis C virus; details: for EC50 fold-difference from J6/JFH1: 6a(HK6a)5-5A virus, difference in sensitivity compared to J6/JFH1; for EC50 fold-difference relative to J6/JFH1, more sensitive: 6a(HK6a)5-5A virus more sensitive than J6/JFH1
Method: as §1, §2, §3

[5] = system: 4a(ED43) 5'UTR-NS5A recombinant virus; assay: High-throughput DAA treatment assay of infected Huh7.5 cells, 4a(ED43)5-5A virus; assay type: cell-based, hepatitis C virus; details: for EC50 fold-difference relative to J6/JFH1, more sensitive: 4a(ED43)5-5A virus more sensitive than J6/JFH1; for EC50 fold-difference relative to J6/JFH1, more resistant: 4a(ED43)5-5A virus more resistant than J6/JFH1
Method: as §1, §2, §3

[6] = system: 5a(SA13) 5'UTR-NS5A recombinant virus; assay: High-throughput DAA treatment assay of infected Huh7.5 cells, 5a(SA13)5-5A virus; assay type: cell-based, hepatitis C virus; details: for EC50 fold-difference from J6/JFH1: 5a(SA13)5-5A virus, difference in sensitivity compared to J6/JFH1; for EC50 fold-difference relative to J6/JFH1, more sensitive: 5a(SA13)5-5A virus more sensitive than J6/JFH1
Method: as §1, §2, §3

[7] = system: 1a(H77) 5'UTR-NS5A recombinant virus; assay: High-throughput DAA treatment assay of infected Huh7.5 cells, 1a(H77)5-5A virus; assay type: cell-based, hepatitis C virus; details: for EC50 fold-difference from J6/JFH1: 1a(H77)5-5A virus, difference in sensitivity compared to J6/JFH1; for EC50 fold-difference relative to J6/JFH1, more sensitive: 1a(H77)5-5A virus more sensitive than J6/JFH1
Method: as §1, §2, §3

[8] = system: J6/JFH1 (HCV genotype 2a recombinant); assay: High-throughput DAA treatment assay of infected Huh7.5 cells, J6/JFH1 virus; assay type: cell-based; details: Hepatitis C virus, first-passage 2a J6/JFH1 stock, read-out: EC50 against J6/JFH1
Method: as §1, §2, §3

Row | SMILES | EC50 fold-difference relative to J6/JFH1, more resistant [1] [fold] | EC50 fold-difference from J6/JFH1 [2] | Potency relative to the other tested DAAs ([3]; all genotype recombinant viruses) | Inhibition of genotype 1-6 recombinant viruses [3] | EC50 fold-difference from J6/JFH1 [4] | EC50 fold-difference from J6/JFH1 ([5]; 4a(ED43)5-5A virus, difference in sensitivity compared to J6/JFH1) | EC50 fold-difference from J6/JFH1 [6] | EC50 fold-difference from J6/JFH1 [7] | EC50 fold-difference relative to J6/JFH1, more sensitive [2] | EC50 fold-difference relative to J6/JFH1, more sensitive [4] | EC50 fold-difference relative to J6/JFH1, more sensitive [5] [fold] | EC50 fold-difference relative to J6/JFH1, more sensitive [6] | EC50 [8] [nM] | EC50 fold-difference relative to J6/JFH1, more sensitive [7] | EC50 fold-difference relative to J6/JFH1, more resistant [5] [fold]
1 | C=C[C@@H]1C[C@]1(NC(=O)[C@@H]1C[C@@H]2CN1C(=O)[C@H](C(C)(C)C)NC(=O)O[C@@H]1C[C@H]1CCCCCc1nc3ccc(OC)cc3nc1O2)C(=O)NS(=O)(=O)C1CC1 [MK-5172] | ~13 | less than 2 fold | the most potent PI with broad activity against HCV genotypes 1-6 | concentration-dependently inhibited | less than 2 fold | less than 2 fold | less than 2 fold | less than 2 fold |  |  |  |  |  |  | 
2 | C=C[C@@H]1C[C@]1(NC(=O)[C@@H]1C[C@@H](Oc2ncc(OC)c3ccc(Cl)cc23)CN1C(=O)[C@@H](NC(=O)OC(C)(C)C)C(C)(C)C)C(=O)NS(=O)(=O)C1CC1 [asunaprevir] | ~13 |  |  | concentration-dependently inhibited |  |  |  |  | 2-3 fold | 2-3 fold | ~5 | 2-3 fold | 159 | ~5 fold | 
3 | CC(C)(C)NC(=O)N[C@H](C(=O)N1C[C@H]2[C@@H]([C@H]1C(=O)NC(CC1CCC1)C(=O)C(N)=O)C2(C)C)C(C)(C)C (some centres unmarked) [boceprevir] | ~2 |  |  |  |  |  |  |  |  | ~4 fold |  |  | 589 |  | ~2
4 | COC(=O)N[C@H](C(=O)N1CCC[C@H]1c1nc(-c2ccc(-c3ccc(-c4c[nH]c([C@@H]5CCCN5C(=O)[C@@H](NC(=O)OC)C(C)C)n4)cc3)cc2)c[nH]1)C(C)C [daclatasvir] | ~6 | < 3 fold |  |  | < 3 fold |  | < 3 fold | < 3 fold |  |  | ~5 |  |  |  | 
5 | C=C[C@@H]1C[C@]1(NC(=O)[C@@H]1C[C@@H](Oc2cc(-c3csc(NC(=O)C(C)C)n3)nc3c(Br)c(OC)ccc23)CN1C(=O)[C@@H](NC(=O)OC1CCCC1)C(C)(C)C)C(=O)O [faldaprevir] | ~17 |  |  | concentration-dependently inhibited |  |  |  |  | ~4 fold | ~4 fold | ~44 | ~10 fold |  | ~12 fold | 
6 | COc1ccc2c(O[C@@H]3C[C@H]4C(=O)N[C@]5(C(=O)NS(=O)(=O)C6CC6)C[C@H]5/C=C\CCCCN(C)C(=O)[C@@H]4C3)cc(-c3nc(C(C)C)cs3)nc2c1C [simeprevir] | ~27 | less than 2 fold |  | concentration-dependently inhibited | less than 2 fold |  | less than 2 fold |  |  |  | ~10 |  | 91 | ~10 fold | 
7 | CCC[C@H](NC(=O)[C@@H]1[C@H]2CCC[C@H]2CN1C(=O)[C@@H](NC(=O)[C@@H](NC(=O)c1cnccn1)C1CCCCC1)C(C)(C)C)C(=O)C(=O)NC1CC1 [telaprevir] | ~4 |  |  |  |  |  |  |  |  | ~4 fold |  |  | 493 |  | ~4
8 | CC[C@@H]1C[C@]1(NC(=O)[C@@H]1C[C@@H]2CN1C(=O)[C@H](C(C)(C)C)NC(=O)OCC(C)(C)CCCCc1cccc3c1CN(C3)C(=O)O2)C(=O)NS(=O)(=O)C1CC1 [vaniprevir] | ~22 |  |  | concentration-dependently inhibited |  |  |  |  | 3-6 fold | 3-6 fold | ~10 | 3-6 fold | 88 | 3-6 fold | 
